Test results as given in patent US11767322B2 (BRISTOL-MYERS SQUIBB COMPANY, priority 2020, dated 2023).
Where two headings read alike, the source gives them in different places.

Tested on: MLKL phosphorylation in HT29-L23 human colorectal adenocarcinoma cells
Test: MLKL phosphorylation high-content assay
Assay type: cell-based
[1] = HT29-L23 cells, necroptosis induced with TNFα, SMAC mimetic and Z-VAD, 6 h, maximal inhibition defined by Nec1s, read-out: pMLKL IC50
[2] = Homo sapiens, 6 h, HT29-L23 cells, necroptosis induced with TNFα, SMAC mimetic and Z-VAD, 6 h, maximal inhibition defined by Nec1s, read-out: pMLKL IC50

[2H]C([2H])([2H])C(O)(c1ccc(F)cc1)C(F)CNC(=O)c1c(C(F)F)ccc(-c2ccn3nc(N)nc3c2)c1F (single isomer, unassigned) [Example 194, 3-(2-amino-[1,2,4]triazolo[1,5-a]pyridin-7-yl)-6-(difluoromethyl)-2-fluoro-N-(2-fluoro-3-(4-fluorophenyl)-3-hydroxybutyl-4,4,4-d3)benzamide] showed an IC50 [1] of 8.8 nM.

C[C@@](O)(c1ccc(F)cc1)[C@@H](F)CNC(=O)c1c(Cl)ccc(-c2ccn3nc(N)nc3c2)c1F [Example 211, 3-(2-amino-[1,2,4]triazolo[1,5-a]pyridin-7-yl)-6-chloro-2-fluoro-N-((2S,3R)-2-fluoro-3-(4-fluorophenyl)-3-hydroxybutyl)benzamide] was tested, and the IC50 [2] was 45 nM.

Cc1c(C(=O)NCC(F)(F)C(O)c2ccc(Cl)cc2)cc(-c2ccn3nc(N)nc3c2)c(F)c1F (single isomer, unassigned) [Example 105, 5-(2-amino-[1,2,4]triazolo[1,5-a]pyridin-7-yl)-N-(3-(4-chlorophenyl)-2,2-difluoro-3-hydroxypropyl)-3,4-difluoro-2-methylbenzamide] showed an IC50 [1] of 0.5 nM.

In the case of Cc1c(C(=O)NCC(F)(F)C(O)c2ccc(Cl)cc2)cc(-c2ccn3nc(N)nc3c2)c(F)c1F (single isomer, unassigned) [Example 104, 5-(2-amino-[1,2,4]triazolo[1,5-a]pyridin-7-yl)-N-(3-(4-chlorophenyl)-2,2-difluoro-3-hydroxypropyl)-3,4-difluoro-2-methylbenzamide], the IC50 [2] is reported as 0.3 nM.

C[C@](O)(c1ccc(F)cc1)[C@H](F)CNC(=O)c1c(Cl)ccc(-c2ccn3nc(N)nc3c2)c1F [Example 212, 3-(2-amino-[1,2,4]triazolo[1,5-a]pyridin-7-yl)-6-chloro-2-fluoro-N-((2R,3S)-2-fluoro-3-(4-fluorophenyl)-3-hydroxybutyl)benzamide] showed an IC50 [2] of 0.8 nM.

With Nc1nc2cc(-c3ccc(C(F)(F)F)c(C(=O)NCC(F)(F)[C@H](F)c4ccc(F)cc4)c3F)ccn2n1 [Example 289, (R)-3-(2-amino-[1,2,4]triazolo[1,5-a]pyridin-7-yl)-2-fluoro-N-(2,2,3-trifluoro-3-(4-fluorophenyl)propyl)-6-(trifluoromethyl)benzamide] the IC50 [2] was 1.7 nM.

Molecule Nc1nc2cc(-c3ccc(F)c(C(=O)NCC(F)(F)[C@@H](F)c4ccc(F)cc4)c3F)ccn2n1 [Example 285, (S)-3-(2-amino-[1,2,4]triazolo[1,5-a]pyridin-7-yl)-2,6-difluoro-N-(2,2,3-trifluoro-3-(4-fluorophenyl)propyl)benzamide] has an IC50 [2] of 0.8 nM.

Work on Cc1c(C(=O)NCC(F)(F)C(O)c2ccc(F)cc2)cc(-c2ccn3nc(N)nc3c2)c(F)c1F (single isomer, unassigned) [Example 106, 5-(2-amino-[1,2,4]triazolo[1,5-a]pyridin-7-yl)-N-(2,2-difluoro-3-(4-fluorophenyl)-3-hydroxypropyl)-3,4-difluoro-2-methylbenzamide] yielded an IC50 [2] of 0.5 nM.

Nc1nc2cc(-c3ccc(F)c(C(=O)NCC(F)(F)[C@H](F)c4ccc(F)cc4)c3F)ccn2n1 [Example 287, (R)-3-(2-amino-[1,2,4]triazolo[1,5-a]pyridin-7-yl)-2,6-difluoro-N-(2,2,3-trifluoro-3-(4-fluorophenyl)propyl)benzamide] showed an IC50 [2] of 0.8 nM.

Nc1nc2cc(-c3ccc(C(F)(F)F)c(C(=O)NCC(F)(F)[C@@H](F)c4ccc(F)cc4)c3F)ccn2n1 [Example 286, (S)-3-(2-amino-[1,2,4]triazolo[1,5-a]pyridin-7-yl)-2-fluoro-N-(2,2,3-trifluoro-3-(4-fluorophenyl)propyl)-6-(trifluoromethyl)benzamide] was tested, and the IC50 [2] was 1 nM.

CCc1ccc(-c2ccn3nc(N)nc3c2)c(F)c1C(=O)NCC(F)(F)C(O)c1ccc(F)cc1 (single isomer, unassigned) [Example 120, 3-(2-amino-[1,2,4]triazolo[1,5-a]pyridin-7-yl)-N-(2,2-difluoro-3-(4-fluorophenyl)-3-hydroxypropyl)-6-ethyl-2-fluorobenzamide] showed an IC50 [2] of 1.4 nM.

With [2H]C([2H])([2H])c1ccc(-c2ccn3nc(N)nc3c2)c(F)c1C(=O)NC[C@H](F)[C@@](C)(O)c1ccc(F)cc1 [Example 213, 3-(2-amino-[1,2,4]triazolo[1,5-a]pyridin-7-yl)-2-fluoro-N-((2S,3S)-2-fluoro-3-(4-flurophenyl)-3-hydroxybutyl)-6-(methyl-d3)benzamide] the IC50 [2] was 13 nM.

CC(CCNC(=O)c1cc(-c2ccn3nc(N)nc3c2)cnc1Cl)c1ccccc1 (centres unmarked) [Example 170] showed an IC50 (Homo sapiens, Table 23, representative compounds from WO2018/148626, read-out: pMLKL IC50) of 48 nM.

CCC(O)(c1ccc(F)cc1)C(F)(F)CNC(=O)c1c(Cl)ccc(-c2ccn3nc(N)nc3c2)c1F (single isomer, unassigned) [Example 314, 3-(2-amino-[1,2,4]triazolo[1,5-a]pyridin-7-yl)-6-chloro-N-(2,2-difluoro-3-(4-fluorophenyl)-3-hydroxypentyl)-2-fluorobenzamide] was tested, and the IC50 [1] was 17 nM.

[2H]C([2H])([2H])C(O)(c1ccc(F)cc1)C(F)CNC(=O)c1c(C(F)F)ccc(-c2ccn3nc(N)nc3c2)c1F (single isomer, unassigned) [Example 197, 3-(2-amino-[1,2,4]triazolo[1,5-a]pyridin-7-yl)-6-(difluoromethyl)-2-fluoro-N-(2-fluoro-3-(4-fluorophenyl)-3-hydroxybutyl-4,4,4-d3)benzamide] was tested, and the IC50 [1] was 0.3 nM.

With C[C@@](O)(c1ccc(F)cc1)[C@H](F)CNC(=O)c1c(Cl)ccc(-c2ccn3nc(N)nc3c2)c1F [Example 210, 3-(2-amino-[1,2,4]triazolo[1,5-a]pyridin-7-yl)-6-chloro-2-fluoro-N-((2R,3R)-2-fluoro-3-(4-fluorophenyl)-3-hydroxybutyl)benzamide] the IC50 [2] was 2.5 nM.

With Cc1ccc(-c2ccn3nc(N)nc3c2)c(F)c1C(=O)NCC(F)(F)C(C)(O)c1ccc(F)cc1 (single isomer, unassigned) [Example 62, 3-(2-amino-[1,2,4]triazolo[1,5-a]pyridin-7-yl)-N-(2,2-difluoro-3-(4-fluorophenyl)-3-hydroxybutyl)-2-fluoro-6-methylbenzamide] the IC50 [1] was 1.1 nM.

For CCc1ccc(-c2ccn3nc(N)nc3c2)c(F)c1C(=O)NCC(F)(F)C(O)c1ccc(F)cc1 (centres unmarked) [Example 121, 3-(2-amino-[1,2,4]triazolo[1,5-a]pyridin-7-yl)-N-(2,2-difluoro-3-(4-fluorophenyl)-3-hydroxypropyl)-6-ethyl-2-fluorobenzamide], the IC50 [2] was 1 nM.

[2H]C([2H])([2H])C(O)(c1ccc(F)cc1)C(F)CNC(=O)c1c(Cl)ccc(-c2ccn3nc(N)nc3c2)c1F (single isomer, unassigned) [Example 237, 3-(2-amino-[1,2,4]triazolo[1,5-a]pyridin-7-yl)-6-chloro-2-fluoro-N-(2-fluoro-3-(4-fluorophenyl)-3-hydroxybutyl-4,4,4-d3)benzamide] gave an IC50 [1] of 86 nM.

Work on [2H]C([2H])([2H])C(O)(c1ccc(F)cc1)C(F)CNC(=O)c1c(Cl)ccc(-c2ccn3nc(N)nc3c2)c1F (single isomer, unassigned) [Example 240, 3-(2-amino-[1,2,4]triazolo[1,5-a]pyridin-7-yl)-6-chloro-2-fluoro-N-(2-fluoro-3-(4-fluorophenyl)-3-hydroxybutyl-4,4,4-d3)benzamide] yielded an IC50 [1] of 3.1 nM.

COc1ccc(-c2ccn3nc(N)nc3c2)c(F)c1C(=O)NCC(F)(F)C(O)c1ccc(F)cc1 (single isomer, unassigned) [Example 124, 3-(2-amino-[1,2,4]triazolo[1,5-a]pyridin-7-yl)-N-(2,2-difluoro-3-(4-fluorophenyl)-3-hydroxypropyl)-2-fluoro-6-methoxybenzamide] gave an IC50 [1] of 1.4 nM.

Work on Cc1ccc(-c2ccn3nc(N)nc3c2)c(F)c1C(=O)NCC(F)(F)C(C)(O)c1ccc(F)cc1 (single isomer, unassigned) [Example 61, 3-(2-amino-[1,2,4]triazolo[1,5-a]pyridin-7-yl)-N-(2,2-difluoro-3-(4-fluorophenyl)-3-hydroxybutyl)-2-fluoro-6-methylbenzamide] yielded an IC50 [2] of 0.8 nM.

Molecule Cc1ccc(-c2ccn3nc(N)nc3c2)c(F)c1C(=O)NCC(C)(O)C(=O)c1ccc(F)cc1 (centres unmarked) [Example 279, 3-(2-amino-[1,2,4]triazolo[1,5-a]pyridin-7-yl)-2-fluoro-N-(3-(4-fluorophenyl)-2-hydroxy-2-methyl-3-oxopropyl)-6-methylbenzamide] has an IC50 [2] of 8.3 nM and an IC50 (Homo sapiens, Table 22, compounds of the present invention, read-out: pMLKL IC50) of 8.3 nM.

Work on Nc1nc2cc(-c3cc(C(=O)NCC(F)(F)C(O)c4ccc(F)cc4)c(Cl)cc3Cl)ccn2n1 (racemic) [Example 127] yielded an IC50 [2] of 9.7 nM.

For Nc1nc2cc(-c3ccc(Cl)c(C(=O)NCC(F)(F)C(O)c4ccc(Cl)c(Cl)n4)c3F)ccn2n1 (single isomer, unassigned) [Example 271], the IC50 [1] was 1.8 nM.

COc1ccc(C(O)C(F)(F)CNC(=O)c2c(Cl)ccc(-c3ccn4nc(N)nc4c3)c2F)cc1 (single isomer, unassigned) [Example 184, 3-(2-amino-[1,2,4]triazolo[1,5-a]pyridin-7-yl)-6-chloro-N-(2,2-difluoro-3-hydroxy-3-(4-methoxyphenyl)propyl)-2-fluorobenzamide] gave an IC50 (Homo sapiens, 6 h, read-out: pMLKL IC50, HT29-L23 cells, necroptosis induced with TNFα, SMAC mimetic and Z-VAD, 6 h, maximal inhibition defined by Nec1s) of 0.4 nM.

CCC(O)(c1ccc(F)cc1)C(F)(F)CNC(=O)c1c(Cl)ccc(-c2ccn3nc(N)nc3c2)c1F (single isomer, unassigned) [Example 313, 3-(2-amino-[1,2,4]triazolo[1,5-a]pyridin-7-yl)-6-chloro-N-(2,2-difluoro-3-(4-fluorophenyl)-3-hydroxypentyl)-2-fluorobenzamide] gave an IC50 [1] of 3.8 nM.

Work on C[C@](O)(c1ccc(F)cc1)[C@@H](F)CNC(=O)c1c(Cl)ccc(-c2ccn3nc(N)nc3c2)c1F [Example 209, 3-(2-amino-[1,2,4]triazolo[1,5-a]pyridin-7-yl)-6-chloro-2-fluoro-N-((2S,3S)-2-fluoro-3-(4-fluorophenyl)-3-hydroxybutyl)benzamide] yielded an IC50 [2] of 80 nM.
